Source: US11260042B2, “Pharmaceutical combination for the treatment of cancer” (ABILITY PHARMACEUTICALS S.L., priority 2017, dated 2022)
Read-outs that look alike come from different tables or passages of the source.

Assays:
[1] = system: A549 human lung adenocarcinoma xenograft; format: in vivo; details: ABTL0812 30 mg/kg/day oral 5 times a week; docetaxel 5 mg/kg i.p. once a week
Method: Methods: Mice were injected with 5×10^6 A549 cells in each flank to induce tumor formation. […] ABTL0812 was administered by the oral route at 30 mg/kg/day, 5 times a week. Docetaxel 5 mg/kg was administered intra-peritoneally once a week (Coxon et al. 2012). Tumor volume and body weight were monitorized 3 times a week.

[2] = system: A549 (human lung carcinoma) cell line; experiment: Cell viability (MTT) of ABTL0812 in combination with docetaxel in lung cancer; format: cell-based; details: Homo sapiens, 72 h, A549, three days, FBS 0.5%, single agent
Method: Methods: A549 cells were incubated with increasing concentrations of ABTL0812 (3-300 μM), docetaxel (0.01-100 μM), or a combination of both (subIC50, i.e., 20 μM fixed concentration of ABTL812 and 0.01-100 μM docetaxel) for three days (FBS 0.5%). […] In the denominator, (Dx)1 is for D1“alone” that inhibits a system x %, and (Dx)2 is for D2“alone” that inhibits a system x %.

[3] = system: SH-SY5Y human neuroblastoma xenograft; format: in vivo, Nu/nu female mice
Method: Methods: Immunodeficient athymic NMRI-Foxn1^nu/Foxn1^nu nude mice were subcutaneously injected with SH-SY5Y cells. This cell line was genetically modified to express luciferase, which would allow the in vivo study not only of tumor size, but also of metastasis formation. When tumors reached an average volume of 80 mm^3, mice were randomly distributed into different treatment groups. ABTL0812 was administered orally at 120 mg/kg daily. In parallel we used cisplatin, a drug included in the chemotherapy induction phase for the treatment of neuroblastoma. Cisplatin was administered at 2 mg/kg i.p. twice a week (Wang et al. 2010). Additionally, we studied the effect of combining ABTL0812 with cisplatin at the indicated doses.
C. Metastasis formation. In order to investigate the effect of ABTL0812 in metastasis formation we used a SH-SY5Y cell line transduced with a luciferase reporter vector. As described above, mice bearing xenograft tumors derived from this cell line were treated with ABTL0812, cisplatin or the combination of both drugs. After ten days of treatment animals were sacrificed and metastasis were assessed ex vivo by monitoring luciferase-expressing cells in lung and liver.

[4] = system: HTB-812 cells; experiment: Cell viability (MTT) of ABTL0812 in combination with paclitaxel, HTB-812; format: cell-based, human; details: Homo sapiens; HTB-812, 48 hours, 0.1% FBS, single agent
Method: (§1) Methods: A549 cells were incubated with increasing concentrations of ABTL0812 (3-300 μM), paclitaxel (0.003-1 μM), or a combination of both using subIC50 fixed concentration of ABTL0812 and 0.003-1 μM paclitaxel for 72 hours in DMEM with 0.1% FBS. H157, H1957 and HTB-812 cells were incubated with increasing concentrations of paclitaxel (0.001-10 μM) alone and in combination with subIC50 fixed concentration of ABTL0812 for 48 hours in DMEM with 0.1% FBS. Cell viability was evaluated in all cases by MTT assay and IC50's were calculated for paclitaxel and the combination. The concentrations of the combinations for the different cell lines were:
(§2) Finally, the Combination Index (CI), as described in the previous section, was calculated for the values of paclitaxel IC50.

[5] = system: MDB-DA-231 (human triple negative breast cancer); experiment: Cell viability (MTT) of ABTL0812 alone or with paclitaxel in breast cancer; format: cell-based; details: Homo sapiens; MDB-DA-231, 48h, 0.5% FBS, MTT, single agent
Method: Methods: MDB-DA-231 cells were seeded in 24-well plates together with increasing concentration of paclitaxel (1-100 nM) in the presence of 5, 10 and 20 μM of ABTL0812 (all doses below to an IC25) for 48h (0.5% FBS). Cell viability was studied by the MTT assay and several parameters were determined to evaluate a possible synergism. First the IC50 for each drug alone or the combination was calculated.

[6] = system: H1957 cells; experiment: Cell viability (MTT) of ABTL0812 in combination with paclitaxel, H1957; format: cell-based, human; details: Homo sapiens; H1957, 48 hours, 0.1% FBS, single agent
Method: as §1, §2

[7] = system: H157 cells; experiment: Cell viability (MTT) of ABTL0812 in combination with paclitaxel, H157; format: cell-based, human; details: Homo sapiens, NCI-H157; H157, 48 hours, 0.1% FBS, single agent
Method: as §1, §2

[8] = format: in vivo
Method: Methods: Forty-five female CD-1 mice were distributed by means of the body weight stratification method into nine experimental groups (A-I) (5 animals for group) that differed in the treatment or in the day on which the reference items (paclitaxel and carboplatin) were administered.
The table below summarizes the treatment groups. Please note that the same administration schedule and doses were administered as in the previous efficacy studies.
The safety assessment relied on observed mortality, local and systemic clinical signs, body weight and food consumption recorded throughout the whole study. In addition, clinical pathology determinations (biochemistry and hematology) were performed before sacrifice in all animals. At the end of the observation period (one day after the last administration), all surviving animals were sacrificed and subjected to a gross necropsy. Moreover, the safety assessment was also based on the weight of selected target organs collected at sacrifice.

[9] = system: SK-N-BE(2) human neuroblastoma cell line; experiment: Cell viability (crystal violet) of ABTL0812 with retinoic acid, SK-N-BE(2); details: 24h
Method: (§3) Methods: LA1-5S and SK-N-BE(2) cells were incubated with a subIC50 fixed concentration of ABTL0812 (30 μM), increasing concentrations of 10 μM, 20 μM and 30 μM of retinoic acid or a combination of both. […] Cells were treated for 24h in IMDM with 0.5% FBS. Cell viability was evaluated in all cases by crystal violet assay. Different doses were assessed in six replicates and the results shown are the average of two independent experiments. Statistical analyses were performed according to the T-Test principle with GraphPad Prism® 5.0 software (* p<0.05; ** p<0.01; *** p<0.001)..

[10] = system: LA1-5S neuroblastoma cell line; experiment: Cell viability (crystal violet) of ABTL0812 with retinoic acid, LA1-5S; details: 24h
Method: as §3

[11] = system: MiaPaca2 human pancreatic cancer xenograft; experiment: Human pancreatic xenograft (MiaPaca-2), gemcitabine and Nab-paclitaxel/gemcitabine; format: in vivo, Athymic Nude-Foxn1nu female mice; details: ABTL0812 120 mg/kg oral 5 times a week; gemcitabine 60 mg/kg, Nab-Paclitaxel 5 mg/kg i.p. 2 times a week (suboptimal chemotherapy dose)
Method: It is important to change the site of injection to avoid intestinal necrosis and keep Nab-Paclitaxel and gemcitabine injections as far as possible one from the other in mice abdomen. • Gemcitabine+ABTL0812 (n=10): treated orally with 120 mg/kg of ABTL0812 in 200 μl of distilled water+5% glycerol, 5 times a week and with 60 mg/kg of gemcitabine administered i.p in 100 μl of sterile water, 2 times a week. ABTL0812 was always administered before chemotherapy with the aim of reducing the stress derived from the i.p. injection, that is normally applied as the last administration. • Gemcitabine+Nab-Paclitaxel+ABTL0812 (n=8): treated orally with 120 mg/kg of ABTL0812 in 200 μl of distilled water+5% glycerol, 5 times a week, with 60 mg/kg of gemcitabine administered i.p. in 100 μl of sterile water, 2 times a week and with 5 mg/kg of Nab-Paclitaxel administered i.p. in 230 μl of 0.9% NaCl solution 2 times a week. As in the gemcitabine+Nab-Paclitaxel group, injections where administered in separated areas of the abdomen. […]
Treatment efficacy was assessed by measuring tumor volume three days a week. Additionally, total body weight was monitored three days a week to test the toxicity associated with the treatments in addition to visual examination of signs indicative of clinicopathological symptoms. […]

[12] = system: MiaPaca2 (human pancreatic carcinoma); experiment: Cell viability (MTT) of ABTL0812 alone or with gemcitabine in pancreatic cancer; format: cell-based; details: Homo sapiens, MIA PaCa-2; MiaPaca2, 72h, 0.5% FBS, MTT, single agent
Method: Methods: MiaPaca2 cells were seeded in 24-well plates together with gemcitabine (0.01-100 μM), ABTL812 (3-300 μM), or a combination of both (subIC50, i.e., 25 μM fixed concentration of ABTL0812 with 0.01-100 μM gemcitabine) and left in the incubator for 72h (0.5% FBS). Cell viability was studied by the MTT assay and several parameters were determined to evaluate a possible synergism. First the IC50 for each drug alone or the combination was calculated. Then, synergism (CI) was calculated as described above.

CC(=O)O[C@@]12CO[C@@H]1C[C@H](O)[C@@]1(C)C(=O)[C@H](O)C3=C(C)[C@@H](OC(=O)[C@H](O)[C@@H](NC(=O)OC(C)(C)C)c4ccccc4)C[C@@](O)([C@@H](OC(=O)c4ccccc4)[C@H]21)C3(C)C [Docetaxel, reference compound]
tumor volume [1]: similarly reduced tumor volume
IC50 [2]: 1.7 µM

N.N.[Cl][Pt][Cl] [Cisplatin, reference compound]
Hematocrit ([3]; mouse, in vivo): 37.3 ± 2.7%
RBC ([3]; mouse, in vivo): 6.8 ± 0.9 ×10^6/μL
WBC ([3]; mouse, in vivo): 3.0 ± 0.6 ×10^3/μL
hematological safety ([3]; mouse, in vivo): induced anemia and reduced white blood cell count
metastasis formation in lung and liver ([3]; ten days of treatment, luciferase-expressing cells ex vivo): no significant effect in inhibiting metastasis formation

CC(=O)O[C@H]1C(=O)[C@@]2(C)[C@H]([C@H](OC(=O)c3ccccc3)[C@]3(O)C[C@H](OC(=O)[C@H](O)[C@@H](NC(=O)c4ccccc4)c4ccccc4)C(C)=C1C3(C)C)[C@]1(OC(C)=O)CO[C@@H]1C[C@@H]2O [Paclitaxel]
IC50 [4]: 2.71 µM
IC50 [5]: 0.0087 µM
IC50 [6]: 3.68 µM
IC50 [7]: 4.19 µM
Biochemistry Creat ([8]; mouse, in vivo): 9.74 µmol/L
Biochemistry Triglyc ([8]; mouse, in vivo): 1.31 mmol/L
Biochemistry Urea ([8]; mouse, in vivo): 9.50 mmol/L
Body Weight Gain D 8-11 ([8]; mouse, in vivo): 0.442 g
Hematology PLT ([8]; mouse, in vivo): 1378 ×10^3/μL
Hematology RBC ([8]; mouse, in vivo): 9.59 ×10^6/μL
Hematology WBC ([8]; mouse, in vivo): 6.28 ×10^3/μL

CC1=C(/C=C/C(C)=C/C=C/C(C)=C/C(=O)O)C(C)(C)CCC1 [retinoic acid]
cell viability ([9]; SK-N-BE(2) cells, combination with low concentration of ABTL0812): 70.4%
cytotoxicity ([9]; SK-N-BE(2), 30 μM ABTL0812, retinoic acid 10-30 μM): even lower
cytotoxicity ([10]; LA1-5S, 30 μM ABTL0812, retinoic acid 10-30 μM): even lower
cell viability ([10]; LAI-5S cells, combination with low concentration of ABTL0812): 82.8%

Nc1ccn([C@@H]2O[C@H](CO)[C@@H](O)C2(F)F)c(=O)n1 [Gemcitabine, reference compound]
tumor volume [11]: do not show significant difference in tumor volume compared with vehicle group
IC50 [12]: 10.2 µM

N.N.O=C([O-])C1(C(=O)[O-])CCC1.[Pt+2] [Carboplatin]
Body Weight Gain D 1-4 ([8]; ABTL0812 120 mg/kg p.o. days 2-6, 9-13, paclitaxel 15, carboplatin 50 mg/kg i.p. D 2/9): -0.626 g
Biochemistry Creat ([8]; PTX/CP on D 2/9): 8.83 µmol/L
Biochemistry Triglyc ([8]; PTX/CP on D 2/9): 1.35 mmol/L
Biochemistry Urea ([8]; PTX/CP on D 2/9): 9.50 mmol/L
Body Weight Gain D 8-11 ([8]; PTX/CP on D 2/9): -0.450 g
Hematology PLT ([8]; PTX/CP on D 2/9): 790 ×10^3/μL
Hematology RBC ([8]; PTX/CP on D 2/9): 8.40 ×10^6/μL
Hematology WBC ([8]; PTX/CP on D 2/9): 7.09 ×10^3/μL
